In patent publication US20080009418A1, “Selective Inhibitors” (Alchemia LTD., priority 2004, published 2008):

Legend:
[1] = molecular target: T1, Human κ-Opioid (KOP) (Homo sapiens, UniProt P41145); assay: Radioligand binding, human κ-opioid (KOP) membranes, filtration, [3H]-Diprenorphine; conditions: compound at 10 μM, [3H]-Diprenorphine
T1 construct: purchased Perkin Elmer Biosignal
Method in brief: (§1)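 Filtration binding on cloned human receptor membranes (1 Unit/well), [125I]-Substance P for NK1 and [3H]-Diprenorphine for KOP, 1 h at room temperature. Filters PEI-presoaked, washed with cold 50 mM Tris-HCl pH 7.4, counted by scintillation; percent inhibition calculated, reference ligand defining non-specific binding.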

[2] = molecular target: T2, Human δ-opioid (DOP) (Homo sapiens, UniProt P41143); assay: Radioligand binding, human δ-opioid (DOP) membranes, FlashPlate, [3H]-Bremazocine; conditions: compound at 10 μM, [3H]-Bremazocine
T2 construct: purchased Perkin Elmer Biosignal
Method in brief: (§2)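 Cloned human receptor membranes were coated onto FlashPlate wells and incubated with radioligand and compound (added from a 0.5 mM DMSO daughter plate) for 1 hour at room temperature in the dark. Scintillation counting gave percent inhibition, with DMSO defining total and reference ligand defining non-specific binding.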

[3] = molecular target: T3, Human Melanocortin (MC3) (Homo sapiens, UniProt P41968); assay: Radioligand binding, human melanocortin MC3 membranes, FlashPlate, [125I]-NDP-αMSH; conditions: compound at 10 μM, [125I]-NDP-αMSH
T3 construct: purchased Perkin Elmer Biosignal
Method in brief: as §2

[4] = molecular target: T4, Human opioid (ORL1) (Homo sapiens, UniProt P41146); assay: Radioligand binding, human opioid ORL1 membranes, FlashPlate, [125I]-Nociceptin; conditions: compound at 10 μM, [125I]-Nociceptin
T4 construct: purchased Perkin Elmer Biosignal
Method in brief: as §2

[5] = molecular target: T5, Human melanocortin (MC5) (Homo sapiens, UniProt P33032); assay: Radioligand binding, human melanocortin MC5 membranes, FlashPlate, [125I]-NDP-αMSH; conditions: compound at 10 μM, [125I]-NDP-αMSH
T5 construct: purchased Perkin Elmer Biosignal
Method in brief: as §2

[6] = molecular target: T6, Human μ-opioid (MOP) (Homo sapiens, UniProt P35372); assay: Radioligand binding, human μ-opioid (MOP) membranes, FlashPlate, [3H]-Naloxone; conditions: compound at 10 μM, [3H]-Naloxone
T6 construct: purchased Perkin Elmer Biosignal
Method in brief: as §2

[7] = molecular target: T7, Human neurokinin (NK1) (Homo sapiens, UniProt P25103); assay: Radioligand binding, human neurokinin NK1 membranes, filtration, [125I]-Substance P; conditions: compound at 10 μM, [125I]-Substance P
T7 construct: purchased Perkin Elmer Biosignal
Method in brief: as §1

[8] = molecular target: T8, Mouse urotensin (mUR2) (Mus musculus, UniProt Q8VIH9); assay: Radioligand binding, mouse urotensin mUR2 membranes, FlashPlate, [125I]-Urotensin II; conditions: compound at 10 μM, [125I]-Urotensin II
T8 construct: purchased Perkin Elmer Biosignal
T8 sequence (Q8VIH9 1-385): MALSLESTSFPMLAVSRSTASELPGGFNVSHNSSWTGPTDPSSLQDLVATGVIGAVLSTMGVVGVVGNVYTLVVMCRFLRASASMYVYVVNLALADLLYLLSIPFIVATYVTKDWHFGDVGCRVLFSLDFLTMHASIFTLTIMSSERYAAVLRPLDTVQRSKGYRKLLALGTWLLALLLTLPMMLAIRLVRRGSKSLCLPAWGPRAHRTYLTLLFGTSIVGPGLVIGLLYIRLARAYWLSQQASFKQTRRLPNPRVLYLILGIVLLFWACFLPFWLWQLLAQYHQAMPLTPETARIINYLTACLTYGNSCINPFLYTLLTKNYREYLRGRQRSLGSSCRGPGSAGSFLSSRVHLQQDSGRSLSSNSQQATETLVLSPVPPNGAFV
Method in brief: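 Cloned mouse urotensin (mUR2) receptor membranes from Perkin Elmer Biosignal were immobilized in FlashPlate microplates using a proprietary coating. Each well got 19.5 μl buffer, then 0.5 μl of DMSO, reference ligand, or compound. Adding 5 μl of [125I]-Urotensin II, diluted to 5× final concentration in binding buffer, started binding. Plates were sealed with TopSeal-A and incubated 1 hour at room temperature in the dark. Wells were counted for 30 seconds each on a TopCount after a 60-second delay, and percentage inhibition was calculated.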

[9] = molecular target: T9, Human Melanocortin (MC4) (Homo sapiens, UniProt P32245); assay: Radioligand binding, human melanocortin MC4 membranes, FlashPlate, [125I]-NDP-αMSH; conditions: compound at 10 μM, [125I]-NDP-αMSH
T9 construct: purchased Perkin Elmer Biosignal
Method in brief: as §2

[10] = molecular target: T10, Human neuropeptide Y (NPY-Y1) (Homo sapiens, UniProt P25929); assay: Radioligand binding, human neuropeptide Y NPY-Y1 membranes, FlashPlate, [125I]-PYY; conditions: compound at 10 μM, [125I]-PYY
T10 construct: purchased Perkin Elmer Biosignal
T10 sequence (P25929 1-384): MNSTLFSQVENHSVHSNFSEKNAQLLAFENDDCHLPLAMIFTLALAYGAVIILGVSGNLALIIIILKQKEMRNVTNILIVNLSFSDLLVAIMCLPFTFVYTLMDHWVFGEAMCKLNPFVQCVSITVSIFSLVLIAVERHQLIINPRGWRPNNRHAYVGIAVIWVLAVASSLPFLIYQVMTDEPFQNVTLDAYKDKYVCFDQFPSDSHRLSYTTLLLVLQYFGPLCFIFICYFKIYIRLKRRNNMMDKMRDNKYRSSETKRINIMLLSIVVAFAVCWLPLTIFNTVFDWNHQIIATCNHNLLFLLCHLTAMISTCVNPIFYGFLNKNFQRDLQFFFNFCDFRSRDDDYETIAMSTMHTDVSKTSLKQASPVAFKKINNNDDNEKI
Method in brief: as §2

[11] = molecular target: T11, Human melanin-concentrating hormone (MCH1) (Homo sapiens, UniProt Q99705); assay: Radioligand binding, human melanin-concentrating hormone MCH1 membranes, FlashPlate, [125I]-S36057; conditions: compound at 10 μM; for A6: inhibition of radioligand binding, human melanin-concentrating hormone (MCH1) / A6 radioligand binding, percentage inhibition: [125I]-S36057
T11 construct: purchased Perkin Elmer Biosignal
Method in brief: as §2

T7 sequence (P25103 whole entry): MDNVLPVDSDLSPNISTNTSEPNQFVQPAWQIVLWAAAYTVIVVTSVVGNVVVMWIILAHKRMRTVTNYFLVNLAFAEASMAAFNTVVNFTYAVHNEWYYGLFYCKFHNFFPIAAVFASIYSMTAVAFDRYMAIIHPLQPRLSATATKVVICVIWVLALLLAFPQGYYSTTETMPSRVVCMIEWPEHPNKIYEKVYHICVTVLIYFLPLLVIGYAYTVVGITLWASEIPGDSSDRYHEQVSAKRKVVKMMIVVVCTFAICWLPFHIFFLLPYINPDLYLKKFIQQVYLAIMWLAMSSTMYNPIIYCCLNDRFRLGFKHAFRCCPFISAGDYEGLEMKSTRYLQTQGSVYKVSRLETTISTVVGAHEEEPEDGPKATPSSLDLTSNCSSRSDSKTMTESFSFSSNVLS
T11 sequence (Q99705 whole entry): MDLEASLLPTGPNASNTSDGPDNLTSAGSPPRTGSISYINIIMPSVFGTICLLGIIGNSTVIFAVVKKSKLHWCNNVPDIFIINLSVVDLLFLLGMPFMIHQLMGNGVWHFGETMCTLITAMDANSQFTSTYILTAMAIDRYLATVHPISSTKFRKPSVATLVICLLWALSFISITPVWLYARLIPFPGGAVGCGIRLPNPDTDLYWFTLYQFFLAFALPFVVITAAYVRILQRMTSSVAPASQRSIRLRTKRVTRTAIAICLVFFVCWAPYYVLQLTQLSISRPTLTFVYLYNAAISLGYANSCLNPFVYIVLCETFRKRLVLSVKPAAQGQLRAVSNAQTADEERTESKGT
T2 sequence (P41143 whole entry): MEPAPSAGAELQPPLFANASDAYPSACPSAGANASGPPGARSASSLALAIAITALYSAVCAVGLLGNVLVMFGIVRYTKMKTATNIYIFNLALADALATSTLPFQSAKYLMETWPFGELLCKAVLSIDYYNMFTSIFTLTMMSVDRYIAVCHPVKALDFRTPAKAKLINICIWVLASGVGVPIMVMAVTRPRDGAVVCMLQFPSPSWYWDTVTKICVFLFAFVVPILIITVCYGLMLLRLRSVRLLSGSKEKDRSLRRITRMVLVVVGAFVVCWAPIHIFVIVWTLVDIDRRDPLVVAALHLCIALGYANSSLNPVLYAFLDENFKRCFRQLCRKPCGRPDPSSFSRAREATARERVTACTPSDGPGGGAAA
T6 sequence (P35372 whole entry): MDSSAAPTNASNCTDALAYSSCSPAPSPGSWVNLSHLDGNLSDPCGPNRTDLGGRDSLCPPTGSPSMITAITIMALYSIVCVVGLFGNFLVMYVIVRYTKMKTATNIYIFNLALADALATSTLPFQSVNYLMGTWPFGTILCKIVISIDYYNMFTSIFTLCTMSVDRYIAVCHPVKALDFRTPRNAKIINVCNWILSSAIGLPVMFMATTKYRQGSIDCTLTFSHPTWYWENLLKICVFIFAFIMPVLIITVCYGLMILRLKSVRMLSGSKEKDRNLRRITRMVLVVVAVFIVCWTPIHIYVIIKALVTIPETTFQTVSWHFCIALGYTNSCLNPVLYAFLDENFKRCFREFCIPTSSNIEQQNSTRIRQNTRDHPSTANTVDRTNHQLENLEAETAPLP
T5 sequence (P33032 whole entry): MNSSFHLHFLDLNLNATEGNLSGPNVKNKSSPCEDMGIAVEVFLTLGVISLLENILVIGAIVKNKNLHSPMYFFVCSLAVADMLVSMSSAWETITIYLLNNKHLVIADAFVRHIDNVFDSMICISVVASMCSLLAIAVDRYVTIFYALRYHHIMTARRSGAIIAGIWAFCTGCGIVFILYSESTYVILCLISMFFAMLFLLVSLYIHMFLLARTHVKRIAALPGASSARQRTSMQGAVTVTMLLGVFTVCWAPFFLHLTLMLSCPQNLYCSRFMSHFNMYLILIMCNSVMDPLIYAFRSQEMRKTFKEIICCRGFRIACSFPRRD
T3 sequence (P41968 whole entry): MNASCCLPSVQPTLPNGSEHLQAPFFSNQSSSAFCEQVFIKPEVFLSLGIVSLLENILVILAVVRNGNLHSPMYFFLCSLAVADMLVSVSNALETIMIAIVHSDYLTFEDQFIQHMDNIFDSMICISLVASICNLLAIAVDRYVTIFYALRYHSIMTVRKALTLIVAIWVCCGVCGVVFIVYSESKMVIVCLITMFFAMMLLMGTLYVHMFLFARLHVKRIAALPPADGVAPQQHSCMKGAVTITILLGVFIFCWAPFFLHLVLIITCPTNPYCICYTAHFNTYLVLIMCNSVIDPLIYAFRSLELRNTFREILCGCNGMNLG
T4 sequence (P41146 whole entry): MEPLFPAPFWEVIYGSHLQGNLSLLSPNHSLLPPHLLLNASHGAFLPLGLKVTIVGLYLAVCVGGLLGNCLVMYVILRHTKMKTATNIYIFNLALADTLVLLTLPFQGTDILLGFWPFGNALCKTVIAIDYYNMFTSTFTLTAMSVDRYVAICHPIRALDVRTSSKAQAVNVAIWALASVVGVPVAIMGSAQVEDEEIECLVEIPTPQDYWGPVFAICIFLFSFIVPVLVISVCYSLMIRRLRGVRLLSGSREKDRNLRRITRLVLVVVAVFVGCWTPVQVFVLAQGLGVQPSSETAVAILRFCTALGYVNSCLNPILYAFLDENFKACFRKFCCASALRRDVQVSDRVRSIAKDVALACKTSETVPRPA
T9 sequence (P32245 whole entry): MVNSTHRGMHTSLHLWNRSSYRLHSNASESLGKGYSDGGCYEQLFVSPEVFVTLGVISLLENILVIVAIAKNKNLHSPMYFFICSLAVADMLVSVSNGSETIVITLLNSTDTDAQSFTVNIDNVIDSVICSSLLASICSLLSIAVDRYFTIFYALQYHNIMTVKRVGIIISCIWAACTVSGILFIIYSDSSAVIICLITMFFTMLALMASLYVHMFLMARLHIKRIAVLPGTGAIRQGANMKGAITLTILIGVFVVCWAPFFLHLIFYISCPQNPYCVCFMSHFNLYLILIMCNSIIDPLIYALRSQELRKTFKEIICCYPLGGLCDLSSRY
T1 sequence (P41145 whole entry): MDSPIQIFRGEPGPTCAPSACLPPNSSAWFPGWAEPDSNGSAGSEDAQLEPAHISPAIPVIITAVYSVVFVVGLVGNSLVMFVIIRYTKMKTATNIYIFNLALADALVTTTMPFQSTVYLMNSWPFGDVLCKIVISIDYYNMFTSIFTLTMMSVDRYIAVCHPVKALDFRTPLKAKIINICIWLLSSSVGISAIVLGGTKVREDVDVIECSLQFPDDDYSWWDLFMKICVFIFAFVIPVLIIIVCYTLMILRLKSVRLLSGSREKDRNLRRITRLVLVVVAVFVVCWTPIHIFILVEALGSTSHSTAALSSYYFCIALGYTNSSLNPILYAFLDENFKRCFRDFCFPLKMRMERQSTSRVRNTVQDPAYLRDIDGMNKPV

COCC1OC(OCCc2ccccc2)C(NC(=O)CNC(=N)N)C(OCc2ccc(-c3ccccc3)cc2)C1O (stereo not drawn) [compound 549]
A2: inhibition of radioligand binding, human κ-opioid (KOP) [1]: − (“−” indicates less than 50% inhibition at 10 μM) | A1: inhibition of radioligand binding, human δ-opioid (DOP) [2]: − (“−” indicates less than 50% inhibition at 10 μM) | A3: inhibition of radioligand binding, human melanocortin (MC3) [3]: − (“−” indicates less than 50% inhibition at 10 μM) | A10: inhibition of radioligand binding, human opioid (ORL1) [4]: − (“−” indicates less than 50% inhibition at 10 μM) | A5: inhibition of radioligand binding, human melanocortin (MC5) [5]: + (“+” indicates greater than 50% inhibition at 10 μM) | A7: inhibition of radioligand binding, human μ-opioid (MOP) [6]: − (“−” indicates less than 50% inhibition at 10 μM) | A8: inhibition of radioligand binding, human neurokinin (NK1) ([7]; 10 µM): − (“−” indicates less than 50% inhibition at 10 μM) | A11: inhibition of radioligand binding, mouse urotensin (mUR2) [8]: − (“−” indicates less than 50% inhibition at 10 μM) | A4: inhibition of radioligand binding, human melanocortin (MC4) [9]: − (“−” indicates less than 50% inhibition at 10 μM) | A9: inhibition of radioligand binding, human neuropeptide Y (NPY-Y1) [10]: − (“−” indicates less than 50% inhibition at 10 μM) | A6: inhibition of radioligand binding, human melanin-concentrating hormone (MCH1) [11]: − (“−” indicates less than 50% inhibition at 10 μM)

NCCC(=O)NC1C(OCc2ccccc2)OC(COCc2ccccc2)C(O)C1OCc1ccc2ccccc2c1 (stereo not drawn) [compound 367]
A2: inhibition of radioligand binding, human κ-opioid (KOP) [1]: − (“−” indicates less than 50% inhibition at 10 μM) | A1: inhibition of radioligand binding, human δ-opioid (DOP) [2]: − (“−” indicates less than 50% inhibition at 10 μM) | A3: inhibition of radioligand binding, human melanocortin (MC3) [3]: − (“−” indicates less than 50% inhibition at 10 μM) | A10: inhibition of radioligand binding, human opioid (ORL1) [4]: − (“−” indicates less than 50% inhibition at 10 μM) | A5: inhibition of radioligand binding, human melanocortin (MC5) [5]: + (“+” indicates greater than 50% inhibition at 10 μM) | A7: inhibition of radioligand binding, human μ-opioid (MOP) [6]: − (“−” indicates less than 50% inhibition at 10 μM) | A8: inhibition of radioligand binding, human neurokinin (NK1) [7]: + (“+” indicates greater than 50% inhibition at 10 μM) | A11: inhibition of radioligand binding, mouse urotensin (mUR2) [8]: − (“−” indicates less than 50% inhibition at 10 μM) | A4: inhibition of radioligand binding, human melanocortin (MC4) [9]: + (“+” indicates greater than 50% inhibition at 10 μM) | A9: inhibition of radioligand binding, human neuropeptide Y (NPY-Y1) [10]: − (“−” indicates less than 50% inhibition at 10 μM) | A6: inhibition of radioligand binding, human melanin-concentrating hormone (MCH1) [11]: − (“−” indicates less than 50% inhibition at 10 μM)

COCC1OC(OCc2ccc3ccccc3c2)C(NC(=O)CNC(=N)N)C(OCc2ccccc2)C1O (stereo not drawn) [compound 230]
A2: inhibition of radioligand binding ([1]; filtration): − (“−” indicates less than 50% inhibition at 10 μM) | A1: inhibition of radioligand binding ([2]; FlashPlate): − (“−” indicates less than 50% inhibition at 10 μM) | A3: inhibition of radioligand binding ([3]; FlashPlate): − (“−” indicates less than 50% inhibition at 10 μM) | A10: inhibition of radioligand binding ([4]; FlashPlate): − (“−” indicates less than 50% inhibition at 10 μM) | A5: inhibition of radioligand binding ([5]; FlashPlate): + (“+” indicates greater than 50% inhibition at 10 μM) | A7: inhibition of radioligand binding ([6]; FlashPlate): − (“−” indicates less than 50% inhibition at 10 μM) | A8: inhibition of radioligand binding ([7]; filtration): + (“+” indicates greater than 50% inhibition at 10 μM) | A11: inhibition of radioligand binding ([8]; FlashPlate): − (“−” indicates less than 50% inhibition at 10 μM) | A4: inhibition of radioligand binding ([9]; FlashPlate): − (“−” indicates less than 50% inhibition at 10 μM) | A9: inhibition of radioligand binding ([10]; FlashPlate): − (“−” indicates less than 50% inhibition at 10 μM) | A6: inhibition of radioligand binding ([11]; [125I]-S36057, FlashPlate): − (“−” indicates less than 50% inhibition at 10 μM)

COC1C(O)C(COCc2ccc3ccccc3c2)OC(OCc2ccc(Cl)cc2)C1NC(=O)CNC(=N)N (stereo not drawn) [compound 350]
A2: inhibition of radioligand binding, human κ-opioid (KOP) [1]: − (“−” indicates less than 50% inhibition at 10 μM) | A1: inhibition of radioligand binding, human δ-opioid (DOP) [2]: − (“−” indicates less than 50% inhibition at 10 μM) | A3: inhibition of radioligand binding, human melanocortin (MC3) [3]: − (“−” indicates less than 50% inhibition at 10 μM) | A10: inhibition of radioligand binding, human opioid (ORL1) [4]: − (“−” indicates less than 50% inhibition at 10 μM) | A5: inhibition of radioligand binding, human melanocortin (MC5) [5]: + (“+” indicates greater than 50% inhibition at 10 μM) | A7: inhibition of radioligand binding, human μ-opioid (MOP) [6]: − (“−” indicates less than 50% inhibition at 10 μM) | A8: inhibition of radioligand binding, human neurokinin (NK1) [7]: + (“+” indicates greater than 50% inhibition at 10 μM) | A11: inhibition of radioligand binding, mouse urotensin (mUR2) [8]: − (“−” indicates less than 50% inhibition at 10 μM) | A4: inhibition of radioligand binding, human melanocortin (MC4) [9]: − (“−” indicates less than 50% inhibition at 10 μM) | A9: inhibition of radioligand binding, human neuropeptide Y (NPY-Y1) [10]: − (“−” indicates less than 50% inhibition at 10 μM) | A6: inhibition of radioligand binding, human melanin-concentrating hormone (MCH1) [11]: − (“−” indicates less than 50% inhibition at 10 μM)

CO[C@H]1[C@H](O)[C@@H](COCc2ccc(Cl)cc2)OC(OCCc2ccccc2)[C@@H]1NC(=O)CNC(=N)N (stereo partly drawn) [compound 119]
A2 radioligand binding, percentage inhibition [1]: − (“−” indicates less than 50% inhibition at 10 μM) | A1 radioligand binding, percentage inhibition [2]: − (“−” indicates less than 50% inhibition at 10 μM) | A3 radioligand binding, percentage inhibition [3]: − (“−” indicates less than 50% inhibition at 10 μM) | A10 radioligand binding, percentage inhibition [4]: − (“−” indicates less than 50% inhibition at 10 μM) | A5 radioligand binding, percentage inhibition [5]: − (“−” indicates less than 50% inhibition at 10 μM) | A7 radioligand binding, percentage inhibition [6]: − (“−” indicates less than 50% inhibition at 10 μM) | A8 radioligand binding, percentage inhibition [7]: + (“+” indicates greater than 50% inhibition at 10 μM) | A11 radioligand binding, percentage inhibition [8]: − (“−” indicates less than 50% inhibition at 10 μM) | A4 radioligand binding, percentage inhibition [9]: − (“−” indicates less than 50% inhibition at 10 μM) | A9 radioligand binding, percentage inhibition [10]: − (“−” indicates less than 50% inhibition at 10 μM) | A6 radioligand binding, percentage inhibition [11]: − (“−” indicates less than 50% inhibition at 10 μM)

CO[C@H]1[C@H](O)[C@@H](COCc2ccc(-c3ccccc3)cc2)OC(OCc2cccc(O)c2)[C@@H]1NC(=O)CCCN (stereo partly drawn) [compound 164]
A2 radioligand binding, percentage inhibition [1]: − (“−” indicates less than 50% inhibition at 10 μM) | A1 radioligand binding, percentage inhibition [2]: − (“−” indicates less than 50% inhibition at 10 μM) | A3 radioligand binding, percentage inhibition [3]: − (“−” indicates less than 50% inhibition at 10 μM) | A10 radioligand binding, percentage inhibition [4]: − (“−” indicates less than 50% inhibition at 10 μM) | A5 radioligand binding, percentage inhibition [5]: − (“−” indicates less than 50% inhibition at 10 μM) | A7 radioligand binding, percentage inhibition [6]: − (“−” indicates less than 50% inhibition at 10 μM) | A8 radioligand binding, percentage inhibition [7]: + (“+” indicates greater than 50% inhibition at 10 μM) | A11 radioligand binding, percentage inhibition [8]: − (“−” indicates less than 50% inhibition at 10 μM) | A4 radioligand binding, percentage inhibition [9]: + (“+” indicates greater than 50% inhibition at 10 μM) | A9 radioligand binding, percentage inhibition [10]: − (“−” indicates less than 50% inhibition at 10 μM) | A6 radioligand binding, percentage inhibition [11]: − (“−” indicates less than 50% inhibition at 10 μM)
